# Data published in patent US9155751B2, “Solution for tissue adhesion prevention and method for tissue adhesion prevention” (THE UNIVERSITY OF TOKYO, priority 2005, dated 2015).
# Where “and” joins values, the source holds several entries; their conditions need not be identical. Equal entries are not always repeated. Entries after “also recorded” stand apart in the source; their conditions may differ.
# Key:
# [1] = test system: HepG2 cells; assay: HepG2 cell survival after air-dry (neutral red absorbance); format: cell-based, human; settings: for cell survival rate: activated with sample solution 37 degrees C 1 hour, air-dry 3 minutes, control plate without air-dry = 100%; for cell survival rate in control plates (effect of each reagent on cells): air-dry not performed, control plate for PBS (+) = 100%; for cell protection effect: plates air-dried for 3 minutes
# Procedure: As cells, HepG2 cells (human hepatoma-derived cell lines) were used.
# For all reagents other than HepG2 cells, AA-2G, trehalose, DMEM media, FCS, neutral red, reagent grade chemicals were used. In addition, as sample solution in which HepG2 cells were activated, 4 kinds of solution; PBS (+) solution, 2.5 mM AA-2G solution, 132 mM trehalose solution, 2.5 mM AA-2G+132 mM trehalose mixed solution were prepared.
# A reagent ascorbic acid-2-glucoside (AA2G; Hayashihara Biochemical Labs., Inc.) was dissolved in distilled water to obtain 2.5 mM AA-2G solution. And a highly purified hydrated crystal trehalose in powder (Reagent trehalose; Hayashihara Biochemical Labs., Inc.) was dissolved in distilled water to obtain 132 mM trehalose solution. The reagents ascorbic acid-2-glucoside and the highly purified hydrated crystal trehalose in powder were dissolved in distilled water to obtain 2.5 mM AA-2G+132 mM trehalose mixed solution. Then, pH and osmolarity of these 4 kinds of sample solutions were adjusted. Adjustment of osmolarity of 2.5 mM AA-2G solution, 132 mM trehalose solution, 2.5 mM AA-2G+132 mM trehalose mixed solution was performed by adjusting with sodium chloride of PBS (+) to be isotonic.
# The pH and osmolarity of each sample after adjustment were as follows; pH 7.2 and 279 mOsm for PBS (+) solution, pH 6.8 and 265 mOsm for 2.5 mM AA-2G solution, pH 7.2 and 283 mOsm for 132 mM trehalose solution and pH 7.0 and 282 mOsm for 2.5 mM AA-2G+132 mM trehalose mixed solution.
# Then, HepG2 cells were seeded with 4×10^4 cells/well each to four 12-well plates, and incubated in DMEM media (Nissui Pharmaceutical Co., Ltd) containing 10% FCS (Gibco) for 4 days. Then the DMEM media containing 10% FCS were replaced with 4 kinds of sample solutions; PBS (+) solution, 2.5 mM AA-2G solution, 132 mM trehalose solution, 2.5 mM AA-2G+132 mM trehalose mixed solution, and activated at 37 degrees C. for 1 hour.
# Two control plates and two test plates were prepared for cells activated with 4 kinds of sample solutions, respectively. For each two test plates, one plate was air-dried for 5 minutes and other plate was air-dried for 3 minutes. The two control plates were not air-dried.
# Then, cells of each plate was replaced with no serum DMEM media and incubated at 37 degrees C. for 1 hour. After replacing with 0.02% neutral red (Wako Pure Chemical Industries, Ltd, hereinafter referred to NR), they were activated at 37 degrees C. for 40 minutes. After removal of NR solution and addition of PBS (+), they were left to stand at 37 degrees C. for 40 minutes, PBS (+) was removed and they were air-dried for 5 minutes. They were added NR extracts and left to stand at 37 degrees C. for 10 minutes, then each sample was distributed over 96-well plate and the absorbance at the wavelength of 570 nm was measured.
# The absorbance of the control plates to which air-dry was not performed was considered as cell survival rate of 100%, and the cell survival rate of the test plates to which air-dry was performed for 3 minutes was calculated. The results are shown in the graph indicating changes in cell survival rate by air-dry in FIG. 1.
# Also, the cell survival rates of control plates for each sample solution to which air-dry was not performed were calculated. The results are shown in the graph indicating the effect of each reagent on cells in FIG. 2.
# [2] = test system: abdominal adhesion model using rabbits; assay: Rabbit abdominal adhesion model by desiccating intestine surface during abdominal surgery (Example 2); format: in vivo, New Zealand White rabbits; settings: for Clinical findings: 2% trehalose solution sprayed on whole intestines several times during laparotomy
# Procedure: In this example, abdominal adhesion model was prepared using rabbits by desiccating surface of intestines during abdominal surgery, and the preventive effect of intestine adhesion by trehalose was discussed.
# As trehalose, powder trehalose (Reagent trehalose; Hayashihara Biochemical Labs., Inc.) and ^+NaCl were dissolved in sterile distilled water of 250 mL as 2%; solution, sterilized by filtration with filter (Millex; Millpore Co., Bedford) and poured to sterile container and stored at room temperature. As test animals, five female New Zealand White rabbits weighing 2.85 to 3.2 kg aged of 14 weeks (Std:NZW, Japan SLC, Inc., Shizuoka) were used. The rabbits were kept in animal laboratory (room temperature of 24+/−1 degrees C., humidity of 30 to […]) in The University of Tokyo, Graduate School of Agricultural and Life Sciences Veterinary Medical Center. The rabbits were acclimatized for 1 week after purchase, and during this period blood test (complete blood count, BUN, Cre, ALT, ALP) and general x-ray test were performed to confirm that abnormality was not present. The experiment of this example was performed according to the Manual of animal experiment of University of Tokyo.
# (§1) The experiment of this example was performed as follows.
# (§2) As anesthesia, 5 mg/kg of ketamine (KETALAL 50; Sankyo Lifetech Co., Ltd., Tokyo) and 0.1 mg/kg of medetomidine (DOMITOL; Meiji Seiyaku Co., Ltd., Tokyo) were intramuscularly injected as preoperative medication, and after intubation maintained with isoflurane (ISOFLU; Dainippon Pharmaceutical Co., Ltd., Osaka). Before operation, 10 mg/kg of enrofloxacin (BAYTRIL; Bayer Medical Ltd., Tokyo) was subcutaneously administered as antibiotics, and during operation 10 mL/kg/hr of lactated Ringer's solution (FUSO; Fuso Pharmaceutical Industries, Ltd., Osaka) was intravenously administered, After operation, single dose of 20 μg/kg of buprenorphine (LEPETAN; Otsuka Pharmaceutical Co., Ltd., Tokyo) as analgesics was subcutaneously administered. During anesthesia, ECG, ETCO2 and SpO2 were monitored and maintained within their normal variations.
# Three rabbits among the five rabbits were randomized to the control group, and the other two rabbits were classified into the trehalose group. For the five rabbits, after disinfection of operative field, abdominal median incision was performed and intestines were exposed as far as possible and serum was wiped with gauze. For control group (three rabbits) they were left desiccated and for trehalose group (two rabbits) whole intestines were sprayed with trehalose for several times. During this period, ovariohysterectomy was performed according to given method. The time period of laparotomy was 30 to 60 minutes for both groups. The 3-0 monofilament nylon fiber (Bear surgical suture; Bear Medic Corporation, Chiba) was used for ovariohysterectomy and closure of abdominal wall, and the 4-0 monofilament polyglyconate fiber (MAXON; Syneture Co., Ltd., Connecticut) was used for subcutaneous tissues and stapler (Manipler AZ-35W; Mani Inc., Tochigi) was used for skin suture. After operation, general condition and wounds were observed and they were killed by overdose of pentobarbital after 2 weeks. The adhesion status in peritoneal cavity was macroscopically observed and recorded as well as tissues of adhesion sites were removed as pathohistological test material and fixed in formalin.
# The clinical findings after 2 weeks and the macroscopic findings of adhesion status after laparotomy of each case are shown in Table 1.
# [3] = test system: abdominal adhesion model using rabbits; assay: Rabbit abdominal adhesion model by desiccating intestine surface during abdominal surgery (Example 3); format: in vivo, New Zealand White rabbits; set-up: key to Adhesion sites: greater omentum - rectum / Adhesion sites: greater omentum - stomach / Adhesion sites: greater omentum - small intestine / Adhesion sites: small intestine - rectum / Adhesion sites: abdominal wall - bladder / Adhesion sites: abdominal wall - fat / Adhesion sites: colon-fat / Adhesion sites: jejunum - abdominal wall / Adhesion sites: cecum - colon: non-adhesion: −; Adhesions of mild degree (abruption enabled): +; Adhesions of severe degree (abruption enabled): ++; Score-Total: scale not given here
# Procedure: In this example, abdominal adhesion model was prepared using rabbits by desiccating surface of intestines during abdominal surgery, and the preventive effect on intestine adhesion by trehalose was discussed.
# As trehalose, powder trehalose (Reagent trehalose; Hayashihara Biochemical Labs., Inc.) were dissolved in sterile distilled water of 250 mL as 7% solution, sterilized by filtration with filter (Millex; Millpore Co., Bed ford) and poured to sterile container and stored at room temperature.
# As test animals, 20 female New Zealand White rabbits weighing 2.6 to 3.2 kg aged of 14 weeks (Std:NZW, Japan SLC, Inc., Shizuoka) were used. The rabbits were kept in animal laboratory (room temperature of 24+/−1 degrees C., humidity of 30 to 70%) in The University of Tokyo, Graduate School of Agricultural and Life Sciences Veterinary Medical Center. The rabbits were acclimatized for 1 week after purchase, and during this period blood test (complete blood count, BUN, Cre, ALT, ALP) and general x-ray test were performed to confirm that abnormality was not present. The experiment of this example was performed according to the Manual of animal experiment of The University of Tokyo.
# as §1
# as §2, with “Seiyaku Ca,” for “Seiyaku Co.,”, “isoflurane (SOFLU” for “isoflurane (ISOFLU;”, “intravenously administered.” for “intravenously administered,”, “administered.” for “administered. During anesthesia, ECG, ETCO2 and SpO2 were monitored and maintained within their normal variations.”
# During anesthesia, ECG, ETCO2 and SpO2 were monitored and maintained within their normal variations.
# For the 20 rabbits, after disinfection of operative field, abdominal median incision was performed and intestines were exposed as far as possible and serum was wiped with gauze. Total ovariohysterectomy performed according to given method. Four section of ovarion arteries and veins were severed after being ligated with 4-0 mono filament polyglyconate suture (MAXON; Syneture Co., Ltd., Connecticut). Also, uterovaginal stump were sutured with 5-0 mono filament polyglyconate suture (MAXON; Syneture Co., Ltd., Connecticut), the 3-0 mono filament polyglyconate suture (MAXON; Syneture CO., Ltd., Connecticut) was used for closure of abdominal wall, and the 4-0 mono filament polyglyconate suture (MAXON; Syneture Co., Ltd., Connecticut) was used for subcutaneous tissues and stapler (ManiplerAZ-35W; Mani Inc., Tochigi) was used for skin suture.
# Ten rabbits among the twenty rabbits were randomized to the control group, and the other ten rabbits were classified into the trehalose group.
# The control group (10 rabbits) was left desiccated. The time period of laparotomy was 60 minutes.
# For the trehalose group, trehalose solution was sprayed over the whole abdominal cavities every 15 minutes (0 minutes, 15 minutes, 30 minutes, 45 minutes, 60 minutes after starting the operation). The time period of laparotomy was 60 minutes. After operation, general condition and wounds were observed and rabbits were euthanized by excessive administration of pentobarbital two weeks after the operations.
# The adhesion status in peritoneal cavity was macroscopically observed and recorded as well as tissues of adhesion sites were removed as pathohistological test materials and fixed in formalin. The clinical findings after 2 weeks and the macroscopic findings of adhesion status after laparotomy of each case are shown in Table 2.
# [4] = 2% trehalose solution sprayed on whole intestines, macroscopic, 2 weeks after operation, individual rabbits
# [5] = 7% trehalose solution sprayed every 15 minutes, 60 min laparotomy, 2 weeks after, individual rabbits No. 1-10
compound,measurement,setting,value
"O=C1O[C@H]([C@@H](O)CO)C(O)=C1O[C@H]1O[C@H](CO)[C@@H](O)[C@H](O)[C@H]1O [2.5 mM AA-2G solution, ascorbic acid-2-glucoside]",cell survival rate,[1],61.8%
same,cell survival rate in control plates (effect of each reagent on cells),[1],101.6% and 101.5%
same,cell protection effect,[1],the cell protection effect was not observed
"OC[C@H]1O[C@H](O[C@H]2O[C@H](CO)[C@@H](O)[C@H](O)[C@H]2O)[C@H](O)[C@@H](O)[C@@H]1O [Trehalose, trehalose]",cell survival rate,[1],70.7%
same,cell survival rate in control plates (effect of each reagent on cells),[1]; listed as 132 mM trehalose solution,97.6% and 97.7%
same,cell protection effect,[1],the cell protection effect was observed
same,Clinical findings,"[2]; 2 weeks after operation, individual rabbits",Partial dehiscence; also recorded: No abnormal findings
same,Clinical findings,"[2]; 2 weeks after operation, individual rabbits, listed as trehalose",a part of skin suture site was removed and showed ulcer in 1 case
same,Findings after laparotomy: Adhesion of stump of uterus,[2]; [4],Present
same,Findings after laparotomy: Adhesion sites in intestines,[2]; [4],2 sites of adhesion and No significant
same,Findings after laparotomy: Adhesion sites in intestines,"[2]; 2% trehalose solution sprayed on whole intestines, macroscopic, 2 weeks after operation, individual rabbits, listed as trehalose",2 sites of mild adhesion were suspected in 1 rabbit and no significant adhesion was macroscopically observed
same,prevention of abdominal adhesion due to desiccation (conclusion),[2]; spray of 2% trehalose solution,would be effective for prevention of abdominal adhesion due to desiccation
same,cases with adhesions of mild and severe degree between abdominal organs,"[3]; 7% trehalose solution spray, 10 rabbits, control 6 of 10",2 of 10
same,adhesion scores between organs (group),"[3]; 7% trehalose solution spray, 10 rabbits, control group +16",+3
same,Adhesion sites: abdominal wall - bladder,[3]; [5],−
same,Adhesion sites: abdominal wall - fat,[3]; [5],−
same,Adhesion sites: cecum - colon,[3]; [5],+ and − (9×)
same,Adhesion sites: colon-fat,[3]; [5],−
same,Adhesion sites: greater omentum - rectum,[3]; [5],−
same,Adhesion sites: greater omentum - small intestine,[3]; [5],−
same,Adhesion sites: greater omentum - stomach,[3]; [5],−
same,Adhesion sites: jejunum - abdominal wall,[3]; [5],−
same,Adhesion sites: small intestine - rectum,[3]; [5],− (9×) and ++
same,Score-Total,"[3]; adhesion score per rabbit, 7% trehalose solution spray, individual rabbits No. 1-10",1 and 0 (8×) and 2
same,prevention of abdominal adhesion due to desiccation (conclusion),[3]; spray of 7% trehalose solution,can obviously prevent and reduce adhesions
same,prevention ratio,"[3]; trehalose group versus control group adhesion score, Wilcoxon rank-sum test p<0.05",81%
